ChEMBL document CHEMBL4359885, “Novel multi target-directed ligands targeting 5-HT4 receptors with in cellulo antioxidant properties as promising leads in Alzheimer's disease” (Eur J Med Chem, 2019)
Calls of active or inactive are those of the source. No cut-off for these calls is given here.

Tests used:
[1] = target: T1, 5-hydroxytryptamine receptor 4 (Homo sapiens, UniProt Q13639); assay: Displacement of [3H]-GR 113808 from recombinant human brain 5HT4 receptor at 10^-8 M measured after 60 mins by radio ligand binding assay relative to control
[2] = Antioxidant activity assessed as […] radical scavenging activity preincubated for 30 mins followed by AAPH addition and measured every minute for 2 hrs by ORAC fluorescein assay relative to trolox; format: functional
[3] = target: T1, 5-hydroxytryptamine receptor 4; assay: Displacement of [3H]-GR 113808 from recombinant human brain 5HT4 receptor at 10^-6 M measured after 60 mins by radio ligand binding assay relative to control
[4] = Antioxidant activity assessed as DPPH radical scavenging activity measured after 120 mins; format: functional
[5] = test system: SH-SY5Y; assay: Antioxidant activity in human SH-SY5Y cells assessed as inhibition of t-BuOOH-induced intracellular oxidative stress by measuring ROS level at 100 uM preincubated for 24 hrs followed by t-BuOOH addition and measured after 30 mins by DCFH-DA dye-based fluorescence assay; format: functional, cell-based
[6] = target: Acetylcholinesterase (Homo sapiens, UniProt P22303); assay: Inhibition of human erythrocytes AChE assessed as reduction in 5-thio-2-nitrobenzoate anion formation using acetylthiocholine iodide as substrate preincubated for 5 mins followed by substrate addition by Ellman's method
[7] = test system: SH-SY5Y; assay: Cytotoxicity against human SH-SY5Y cells assessed as reduction in cell viability at 50 uM measured after 24 hrs by MTT assay relative to control; format: cell-based
[8] = target: T1, 5-hydroxytryptamine receptor 4; assay: Partial agonist activity at human HA-tagged 5HT4 receptor expressed in COS7 cells assessed as induction of cAMP production measured after 10 mins by HTRF assay; format: functional, cell-based
[9] = test system: SH-SY5Y; assay: Cytotoxicity against human SH-SY5Y cells assessed as reduction in cell viability at 0.5 to 10 uM after 24 hrs by MTT assay relative to control; format: cell-based
[10] = target: T1, 5-hydroxytryptamine receptor 4; assay: Agonist activity at human HA-tagged 5HT4 receptor expressed in COS7 cells assessed as induction of cAMP production measured after 10 mins by HTRF assay relative to control; format: functional, cell-based
[11] = target: T1, 5-hydroxytryptamine receptor 4; assay: Binding affinity to recombinant human brain 5HT4 receptor by radio ligand binding assay
[12] = target: T1, 5-hydroxytryptamine receptor 4; assay: Displacement of [3H]-GR 113808 from recombinant human brain 5HT4 receptor measured after 60 mins by radio ligand binding assay
[13] = test system: SH-SY5Y; assay: Antioxidant activity in human SH-SY5Y cells assessed as inhibition of t-BuOOH-induced intracellular oxidative stress by measuring ROS level at 10 uM preincubated for 24 hrs followed by t-BuOOH addition and measured after 30 mins by DCFH-DA dye-based fluorescence assay relative to control; format: functional
[14] = test system: SH-SY5Y; assay: Cytotoxicity against human SH-SY5Y cells assessed as reduction in cell viability at 0.5 to 10 uM measured after 24 hrs by MTT assay; format: cell-based

T1 sequence (Q13639 whole entry): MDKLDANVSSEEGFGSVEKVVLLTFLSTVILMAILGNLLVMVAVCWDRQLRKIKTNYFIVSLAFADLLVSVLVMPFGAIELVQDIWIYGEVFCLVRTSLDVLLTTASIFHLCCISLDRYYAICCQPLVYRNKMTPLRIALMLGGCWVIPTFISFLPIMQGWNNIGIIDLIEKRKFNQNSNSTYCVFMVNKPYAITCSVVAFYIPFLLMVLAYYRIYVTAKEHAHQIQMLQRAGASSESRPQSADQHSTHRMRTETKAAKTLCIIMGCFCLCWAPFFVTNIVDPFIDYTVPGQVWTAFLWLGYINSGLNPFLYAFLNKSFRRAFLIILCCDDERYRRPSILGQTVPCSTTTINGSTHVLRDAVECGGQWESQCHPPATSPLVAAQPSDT
Chain of Acetylcholinesterase (P22303 whole entry): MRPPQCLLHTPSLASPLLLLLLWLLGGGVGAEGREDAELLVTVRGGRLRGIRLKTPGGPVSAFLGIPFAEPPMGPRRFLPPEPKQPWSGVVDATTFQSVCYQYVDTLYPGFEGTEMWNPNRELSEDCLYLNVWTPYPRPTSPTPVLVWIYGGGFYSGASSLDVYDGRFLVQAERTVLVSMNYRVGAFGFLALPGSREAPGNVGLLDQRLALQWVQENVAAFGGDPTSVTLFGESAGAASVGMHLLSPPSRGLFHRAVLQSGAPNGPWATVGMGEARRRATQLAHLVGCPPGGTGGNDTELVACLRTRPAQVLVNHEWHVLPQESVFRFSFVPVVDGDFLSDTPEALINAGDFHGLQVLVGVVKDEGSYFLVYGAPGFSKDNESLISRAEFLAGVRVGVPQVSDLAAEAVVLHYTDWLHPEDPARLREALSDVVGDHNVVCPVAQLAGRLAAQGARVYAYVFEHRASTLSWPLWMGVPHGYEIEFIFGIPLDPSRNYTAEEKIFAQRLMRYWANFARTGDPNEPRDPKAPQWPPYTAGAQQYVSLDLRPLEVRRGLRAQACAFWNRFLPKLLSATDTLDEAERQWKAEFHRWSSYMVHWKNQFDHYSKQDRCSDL

SMILES	inhibition [1]	fold change (FC) [2]	inhibition [3]	EC50 [4]	inhibition [5]	IC50 [6]	Activity [7]	EC50 [8]	Activity [9]	Emax [10]	Ki [11]	IC50 [12]	inhibition at 10 µM [13]	Activity [14]	inhibition [13]
COc1cc(N)c(Cl)cc1C(=O)CCC1CCN(Cc2ccc3c(c2)OCO3)CC1	22%	< 0.2	100%	> 250000 nM											
Cc1c(C)c2c(c(C)c1O)CCC(C)(C(=O)O)O2 (stereo not drawn) [TROLOX]				22900 nM	Active										
COc1cc(CN2CCC(CCC(=O)c3cc(Cl)c(N)cc3OC)CC2)ccc1O	7%	3.88	95%	180000 nM		535 nM									
O=c1c(O)c(-c2ccc(O)c(O)c2)oc2cc(O)cc(O)c12 [QUERCETIN]		6.5		9300 nM											
COc1cc(/C=C/C(=O)NCCN2CCC(CCC(=O)c3cc(Cl)c(N)cc3OC)CC2)ccc1O	39%	1.47	100%	45500 nM			68%	4.5 nM	12%	47%	101 nM	101 nM	50%		
COc1ccc(CN2CCC(CCC(=O)c3cc(Cl)c(N)cc3OC)CC2)cc1OCc1ccccc1	7%	< 0.2	88%	> 250000 nM											
NCCc1c[nH]c2ccc(O)cc12	0%		65%												
COc1cc(CN2CCC(CCC(=O)c3cc(Cl)c(N)cc3OC)CC2)ccc1OCc1ccccc1	0%	< 0.2	97%	> 250000 nM											
COc1cc(N)c(Cl)cc1C(=O)CCC1CCN(Cc2ccc(OCc3ccccc3)c(OCc3ccccc3)c2)CC1	3%	< 0.2	89%	> 250000 nM											
COc1cc(N)c(Cl)cc1C(=O)CCC1CCN(Cc2ccc(O)c(O)c2)CC1	76%	3.4	100%	19600 nM		138 nM	37%	2.8 nM		72%	5.9 nM	7.5 nM	50%	Non-Toxic	
COc1ccc(CN2CCC(CCC(=O)c3cc(Cl)c(N)cc3OC)CC2)cc1O	64%	3.41	100%	85500 nM			40%	1.4 nM		57%	12.7 nM	14.5 nM	50%	Non-Toxic	
COc1cc(N)c(Cl)cc1C(=O)CCC1CCN(CCNC(=O)CCCC[C@@H]2CCSS2)CC1	26%	0.76	99%	> 250000 nM			48%							Non-Toxic	inactive
